Tests used:
Assay type in all cases: cell-based
[1] = test system: 185 kDa protein(s) (p185); test: Tyrosine phosphorylation of p185 in MCF-7 cells (anti-phosphotyrosine immunoblot); details: MCF-7 cells; for Tyrosine phosphorylation of a 185 kDa protein(s): ATA, EB each at 300 μg/ml, IGF-1 at 20 ng/ml; for Exposure time at which p185 phosphorylation peaked: 300 μg/ml ATA, 30 μg/ml EB
Protocol: FIG. 1 is the effect of ATA and EB on tyrosine phosphorylation: MCF-7 cells, grown in 35 mm dishes were solubilized in Buffer A (a) or Buffer B (b-c). The solubilized cells were subjected to 7.5% SDS-PAGE and immunoblotted with an anti-phosphotyrosine antibody. (a) Cells treated for 5 mins. with ATA, EB, each at 300 μg/ml, IGF-1 at 20 ng/ml, or without additives (CON); (b) Cells treated with 300 μg/ml ATA for the indicated times; (c) Cells treated with 30 μg/ml EB for the indicated times; (d) Cells treated for 5 mins. with the indicated concentrations of ATA; (e) Cells treated for 5 mins. with the indicated concentrations of EB. Molecular mass markers (in kDa) are indicated on the right.
FIG. 2 is the effect of ATA and vanadate on the IGF-1 stimulated tyrosine phosphorylation of p185: A--Cells treated for 5 mins. with the indicated concentrations of IGF-1 in the presence or absence of 300 μg/ml ATA; B--Cells pre-incubated for 3 hours with or without 50 μM vanadate were incubated for 5 mins. with ATA, EB each at 300 μg/ml or with 10 ng/ml IGF-1 in the presence or absence of vanadate. Cytosols extracted in Buffer B were analyzed by immunoblotting with anti-phosphotyrosine antibody as in FIG. 1.
FIG. 8 is the effect of fractionated ATA on p185 phosphorylation: A--Crude ATA was separated on a Bio-Rad P-4 column and the combined void volume was then gel filtrated on a column of Bio-Rad P-10. The column was calibrated with the following molecular weight markers: DB-Dextran blue; CC-cytochrome C: Ins-insulin; B12-Vitamin B12. B--MCF-7 cells were incubated for 5 mins. with the indicated fractions of ATA (eluted from the P-10 column shown in A), crude ATA, each at 200 μg/ml or IGF-1 at 20 ng/ml. Cytosols, solubilized in Buffer B were subjected to 7.5% SDS-PAGE and immunoblotted with phosphotyrosine antibody.
MCF-7 cells were grown in 35 or 100 mm dishes in DMEM with 5% bovine fetal serum. Rat hepato FaO cells were grown in RPMI 1640 medium supplemented with 10% fetal calf serum. Subconfluent monolayers of MCF-7 cells or FaO cells, were deprived of serum for 20 hours prior to each experiment. The medium was removed, and cells were incubated at 37° C. under the conditions as indicated for each experiment. The reaction was terminated by removing the medium and freezing the monolayers with liquid nitrogen. In some experiments, cells were preincubated with 50 μM sodium orthovanadate for 3 hours.
Cells were solubilized at 4° C. with 0.2 ml/35 mm dish or 2 ml/100 mm dish of the indicated buffer. The solubilized cells were scraped and sedimented by centrifugation at 12,000×g for 30 mins. at 4° C. Aliquots of the supernatants were normalized for protein, mixed with concentrated (5×) Laemmli sample buffer, boiled for 10 mins. and resolved on 7.5 or 12% SDS-PAGE under reducing conditions.
(§1) Nitrocellulose blots of proteins were incubated with the antibodies, and proteins were detected by enhanced chemiluminescence using horseradish peroxidase-labeled protein A, horseradish peroxidase-labeled anti rabbit IgG or horseradish peroxidase-labeled anti-mouse IgG.

[2] = biological target: T1, IGF-1 receptor β subunit (Homo sapiens, UniProt P08069); test: Tyrosine phosphorylation of IGF-1 receptor in MCF-7 cells; details: 5 mins., ATA, EB each at 300 μg/ml
T1 construct: endogenous in cells; host or cells: MCF-7
T1 sequence (P08069 741-1367 limits assumed): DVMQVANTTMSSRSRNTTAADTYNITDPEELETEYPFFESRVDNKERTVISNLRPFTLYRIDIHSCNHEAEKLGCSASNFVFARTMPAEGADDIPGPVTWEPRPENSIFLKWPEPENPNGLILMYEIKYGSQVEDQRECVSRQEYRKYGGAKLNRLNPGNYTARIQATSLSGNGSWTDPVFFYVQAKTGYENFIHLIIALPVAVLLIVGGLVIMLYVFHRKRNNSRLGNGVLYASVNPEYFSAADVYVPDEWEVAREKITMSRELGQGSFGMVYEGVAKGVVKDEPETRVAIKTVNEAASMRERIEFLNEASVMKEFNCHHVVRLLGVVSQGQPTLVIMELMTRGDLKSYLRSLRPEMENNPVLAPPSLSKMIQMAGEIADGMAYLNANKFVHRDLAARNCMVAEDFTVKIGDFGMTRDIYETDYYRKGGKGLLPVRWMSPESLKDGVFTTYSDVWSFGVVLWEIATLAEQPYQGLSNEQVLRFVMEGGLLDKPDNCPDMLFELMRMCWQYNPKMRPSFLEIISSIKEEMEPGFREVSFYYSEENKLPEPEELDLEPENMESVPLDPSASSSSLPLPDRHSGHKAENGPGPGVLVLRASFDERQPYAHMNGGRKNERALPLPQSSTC
T1 sequence (P08069 31-736 limits assumed): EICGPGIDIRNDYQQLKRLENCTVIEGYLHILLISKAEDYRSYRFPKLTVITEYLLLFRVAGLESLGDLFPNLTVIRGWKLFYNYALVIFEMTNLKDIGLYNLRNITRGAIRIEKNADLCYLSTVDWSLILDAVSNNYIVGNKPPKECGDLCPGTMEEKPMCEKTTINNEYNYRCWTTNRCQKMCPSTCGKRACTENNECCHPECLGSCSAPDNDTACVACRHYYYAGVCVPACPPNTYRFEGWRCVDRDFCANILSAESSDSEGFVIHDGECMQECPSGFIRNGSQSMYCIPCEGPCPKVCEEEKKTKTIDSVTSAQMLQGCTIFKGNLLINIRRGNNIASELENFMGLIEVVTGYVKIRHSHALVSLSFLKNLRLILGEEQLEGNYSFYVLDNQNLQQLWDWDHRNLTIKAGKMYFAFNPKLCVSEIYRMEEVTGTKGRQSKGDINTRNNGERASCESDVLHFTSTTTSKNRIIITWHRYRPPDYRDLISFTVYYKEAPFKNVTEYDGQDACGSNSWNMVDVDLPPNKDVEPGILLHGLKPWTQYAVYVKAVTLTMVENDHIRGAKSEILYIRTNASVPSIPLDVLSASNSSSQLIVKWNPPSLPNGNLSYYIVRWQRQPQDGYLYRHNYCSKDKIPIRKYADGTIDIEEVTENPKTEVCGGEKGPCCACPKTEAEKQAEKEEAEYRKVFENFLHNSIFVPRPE
Protocol: FIG. 6 is the effect of ATA and EB on tyrosine phosphorylation of IGF-1 receptor: MCF-7 cells, grown in 100 mm dishes, were treated with ATA, EB each at 300 μg/ml, or 20 ng/ml IGF-1 for 5 mins. Total cell extracts, solubilized in Buffer A, were immunoprecipitated with IGF1R antibody. The immunocomplexes precipitataed with protein G-Sepharose beads, were subjected to 7.5% SDS-PAGE followed by immunoblotting with a phosphotyrosine antibody. The membrane, after ECL detection, was stripped of bound antibody and reblotted with IGF1R antibody (IGF1R).
Cells were solubilized in Buffer A or C. Extracts were immunoprecipitated at 4° C. with antibodies to IRS-1, IRS-2, IGF-1 or IR receptor or Grb2, adsorbed on protein A-Sepharose beads. The immunocomplexes were pelleted by centrifugation at 12,000×g and washed twice with Buffer A, and twice with Buffer A containing 0.1% Triton x-100. The pellets were then suspended in Laemmli sample buffer and resolved on 7.5% SDS-PAGE.
Nitrocellulose blots of proteins were incubated with the antibodies, and proteins were detected by enhanced chemiluminescence using horseradish peroxidase-labeled protein A, horseradish peroxidase-labeled anti rabbit IgG or horseradish peroxidase-labeled anti-mouse IgG. […]

[3] = test system: MAPK-1 (44 kDa) and MAPK-2 (42 kDa); test: Activation of MAPKs in MCF-7 cells (anti-active MAPK immunoblot); details: 5 mins., ATA, EB each at 300 μg/ml, IGF-1 20 or 40 ng/ml
Protocol: FIG. 7 is the effect of ATA and EB on activation of MAPKs: MCF-7 cells were treated for 5 mins. with ATA, EB, each at 300 μg/ml, 20 ng/ml or 40 ng/ml IGF-1. Cell lysates, solubilized in Buffer C, were subjected to 12% SDS-PAGE and immunoblotted with an anti-active MAPK antibody. The membrane, after ECL detection, was stripped of bound antibody and blotted with an anti-MAPK antibody.
as §1
The activated forms of MAPKs were detected by anti-active MAPK immunoblotting in the MCF-7 cell's lysates. […] Blotting with anti MAPKs antibodies confirms that similar amounts of MAPKs were present in treated and non-treated cells.

[4] = test system: 3T3 L1 adipocytes; test: Lipogenesis in 3T3 L1 adipocytes; details: 20 mins., EB, ATA 200 μg/ml, insulin 600 ng/ml
Protocol: FIG. 11 is the metabolic effects in 3T3 L1 adipocytes: Fully differentiated 3T3 L1 adipocytes were incubated with EB, ATA or fuchsin (FUCH) each at 200 μg/ml, or with 600 ng/ml of insulin for 20 mins. (A, B, C) or 5 mins. (D). CON indicates no additive.
C--Lipogenesis. Cells were incubated with 5 mM(U-^14 C) glucose (1 μCi/ml) for 60 mins. Radioactivity was determined in the cellular lipid fraction.

Compound | Concentration of maximal p185 phosphorylation ([1]; 5 mins.) [µg/mL] | Tyrosine phosphorylation of a 185 kDa protein(s) ([1]; 5 mins.) | Exposure time at which p185 phosphorylation peaked [1] [min] | Tyrosine phosphorylation of IGF-1 receptor β subunit [2] | Phosphorylated (active) isoforms MAPK-1 and MAPK-2 [3] | Lipogenesis [4] | Effect on IGF-1 induced phosphorylation of the 185 kDa protein(s) ([1]; 5 mins., 300 μg/ml ATA with IGF-1) | pp185 (arbitrary units) ([1]; 5 mins., ATA fractions or crude ATA each at 200 μg/ml, scanned autoradiogram from FIG. 8B, Control 100)
Cc1cc(-c2ccc(N=Nc3ccc4c(S(=O)(=O)O)cc(S(=O)(=O)O)c(N)c4c3O)c(C)c2)ccc1N=Nc1ccc2c(S(=O)(=O)O)cc(S(=O)(=O)O)c(N)c2c1O [EB, Evan's Blue] | 300 to 400 | enhanced tyrosine phosphorylation of a 185 kDa protein(s) | 5 | phosphorylated the IGF-1 receptor β subunit | clearly detected | increase |  | 
O=C(O)C1=CC(=C(c2ccc(O)c(C(=O)O)c2)c2ccc(O)c(C(=O)O)c2)C=CC1=O [ATA, Aurintricarboxylic acid] | 300 to 400 | enhanced tyrosine phosphorylation of a 185 kDa protein(s) | 2 | phosphorylated the IGF-1 receptor β subunit | clearly detected | increase | unaffected | 668

From patent publication US6020374A, “Biologically active synthetic dye compounds” (priority 1998, dated 2000)
